Laboratory results published in US10897901B2, “Herbicidal composition” (FMC Corporation, priority 2007, dated 2021).

Key:
Assay type in all cases: in vivo
[1] = test system: Ivyleaf Morningglory (Ipomoea hederacea); test: Example 4 post-emergence greenhouse pot test, morningglory
Protocol: (§1) Test compositions containing sulfentrazone (75 DF formulation), quniclorac, (DRIVE® 75 DF Herbicide) or mixtures of sulfentrazone and quinclorac at ratios of 1:1 to 1:5, were diluted with water to provide the appropriate test rate concentrations. A nonionic surfactant (0.25%) was added to each test solution. The test weeds include crabgrass (Digitaria sp), Chickweed (Stellaria media), Hemp Sesbania (Sesbania exaltata), Kochia (Kochia scoparia), Ivyleaf Morningglory (Ipomoea hederacea), Redroot Pigweed (Amaranthus retroflexus) and yellow nutsedge (Cyperus esculentusi).
(§2) For post-emergence testing, three disposable 3 inch square pots for each rate of application of each herbicide were filled with a soil, comprised of peat moss, vermiculite, bark ash, pine bark, limestone and a wetting agent, to which 8 to 10 seeds were planted. The pots were placed in a greenhouse and watered daily, thus allowing the seeds to germinate and the foliage to develop for 22 days, 3 months for Kochia.
(§3) Pots designated for treatment were placed on a conveyor belt and the conveyor belt fed under a spray nozzle mounted about ten inches above the foliage. The spray of herbicidal solution was commenced and once stabilized; the pots were passed under the spray at a speed to receive a coverage equivalent of 30 gallons per acre. The application rates are those shown in Table 4 below for the individual herbicidal solutions and the mixture of sulfentrazone and quinclorac. The post-emergence pots were immediately placed in the green-house and not watered until 24 hours after treatment with the test solution. Thereafter they were regularly watered at ground level. The control of weeds was evaluated in each experimental test from 2 to 20 days after treatment (DAT). The results, shown as an average of the replications, were compared with results observed in untreated control pots in the same tests.
(§4) Percent control was determined by a method similar to the 0 to 100 rating system disclosed in “Research Methods in Weed Science,” 2nd ed., B. Truelove, Ed.; Southern Weed Science Society; Auburn University, Auburn, Ala., 1977.

[2] = test system: Blackseed Plantain (Plantago rugelii); test: Example 1 post-emergent turf plot test, plantain; conditions: 0.75 lb ai/acre
Protocol: The experimental design used randomized plots with post-emergent treatment and three replications per test trial. The size of each experimental plot was 4 feet by 6 feet. The application of each test composition was performed with pressurized back-pack sprayers, calibrated to spray 200 gallons per acre. Test compositions containing sulfentrazone (DISMISS™ Turf Herbicide), quniclorac, (FACET® 75 DF herbicide) or a mixture of sulfentrazone and quinclorac in a 1:3 ratio, prepared as described above, were diluted with water to provide the appropriate test rate concentrations.
The control of weeds was evaluated in each experimental plot from 7 to 41 days after treatment (DAT) of each test rate. The results, shown as an average of the replications, were compared with results observed in untreated control plots in the same trials.

[3] = test system: yellow nutsedge (Cyperus esculentusi); test: Example 3 post-emergence greenhouse pot test, nutsedge
Protocol: Test compositions containing sulfentrazone (DISMISS™ Turf Herbicide), quniclorac, (DRIVE® 75 DF Herbicide) or mixture of sulfentrazone and quinclorac in a three to one ratio, prepared as described above, were diluted with water to provide the appropriate test rate concentrations. A nonionic surfactant (0.25%) was added to each test solution.
The test weeds include Red River crabgrass (Digitaria ciliaris) and yellow nutsedge (Cyperus esculentusi).
as §2, with “develop.” for “develop for 22 days, 3 months for Kochia.”
as §3, with “Table 3” for “Table 4”, “from 1” for “from 2”, “to 22” for “to 20”
as §4

crabgrass (Digitaria sp) = test: Example 4 post-emergence greenhouse pot test, crabgrass
Protocol: as §1, §2, §3, §4

**Q.** What does the source list for `O=C(O)c1c(Cl)ccc2cc(Cl)cnc12` [B, 3,7-dichloro-8-quinolinecarboxylic acid]?
**A.** Percent Control ([1]; 0.25 lb ai/acre, 2 DAT): 20%; Percent Control ([1]; 0.25 lb ai/acre, 7 DAT): 25%; Percent Control ([1]; 0.25 lb ai/acre, 14 DAT): 60%; Percent Control ([1]; 0.25 lb ai/acre, 20 DAT): 70%; Percent Control ([1]; 0.5 lb ai/acre, 2 DAT): 20%; Percent Control ([1]; 0.5 lb ai/acre, 7 DAT): 25%; Percent Control ([1]; 0.5 lb ai/acre, 14 DAT): 40%; Percent Control ([1]; 0.5 lb ai/acre, 20 DAT): 50%; Percent Control ([1]; 0.75 lb ai/acre, 2 DAT): 20%; Percent Control ([1]; 0.75 lb ai/acre, 7 DAT): 25%; Percent Control ([1]; 0.75 lb ai/acre, 14 DAT): 40%; Percent Control ([1]; 0.75 lb ai/acre, 20 DAT): 50%; Percent Control ([1]; 1.0 lb ai/acre, 2 DAT): 20%; Percent Control ([1]; 1.0 lb ai/acre, 7 DAT): 25%; Percent Control ([1]; 1.0 lb ai/acre, 14 DAT): 50%; Percent Control ([1]; 1.0 lb ai/acre, 20 DAT): 70%; Percent Control ([1]; 1.25 lb ai/acre, 2 DAT): 20%; Percent Control ([1]; 1.25 lb ai/acre, 7 DAT): 25%; Percent Control ([1]; 1.25 lb ai/acre, 14 DAT): 40%; Percent Control ([1]; 1.25 lb ai/acre, 20 DAT): 50%; Percent Control ([2]; 7 DAT): 100%; Percent Control ([2]; 14 DAT): 100%; Percent Control ([2]; 21 DAT): 100%; Percent Control ([2]; 28 DAT): 100%; Percent Control ([3]; 1-5 leaf stage, 7 days old, 0.375 lb ai/acre, 1 DAT): 0%; Percent Control ([3]; 1-5 leaf stage, 7 days old, 0.375 lb ai/acre, 3 DAT): 0%; Percent Control ([3]; 1-5 leaf stage, 7 days old, 0.375 lb ai/acre, 7 DAT): 0%; Percent Control ([3]; 1-5 leaf stage, 7 days old, 0.375 lb ai/acre, 14 DAT): 0%; Percent Control ([3]; 1-5 leaf stage, 7 days old, 0.375 lb ai/acre, 21 DAT): 0%; Percent Control ([3]; 1-5 leaf stage, 7 days old, 0.75 lb ai/acre, 1 DAT): 0%; Percent Control ([3]; 1-5 leaf stage, 7 days old, 0.75 lb ai/acre, 3 DAT): 0%; Percent Control ([3]; 1-5 leaf stage, 7 days old, 0.75 lb ai/acre, 7 DAT): 0%; Percent Control ([3]; 1-5 leaf stage, 7 days old, 0.75 lb ai/acre, 14 DAT): 0%; Percent Control ([3]; 1-5 leaf stage, 7 days old, 0.75 lb ai/acre, 21 DAT): 0%; Percent Control ([3]; 1-5 leaf stage, 7 days old, 1.0 lb ai/acre, 1 DAT): 0%; Percent Control ([3]; 1-5 leaf stage, 7 days old, 1.0 lb ai/acre, 3 DAT): 0%; Percent Control ([3]; 1-5 leaf stage, 7 days old, 1.0 lb ai/acre, 7 DAT): 0%; Percent Control ([3]; 1-5 leaf stage, 7 days old, 1.0 lb ai/acre, 14 DAT): 0%; Percent Control ([3]; 1-5 leaf stage, 7 days old, 1.0 lb ai/acre, 21 DAT): 0%; Percent Control ([3]; 5-7 leaves, cut to 6 cm tall, 28 days old, 0.375 lb ai/acre, 1 DAT): 0%; Percent Control ([3]; 5-7 leaves, cut to 6 cm tall, 28 days old, 0.375 lb ai/acre, 3 DAT): 5%; Percent Control ([3]; 5-7 leaves, cut to 6 cm tall, 28 days old, 0.375 lb ai/acre, 7 DAT): 5%; Percent Control ([3]; 5-7 leaves, cut to 6 cm tall, 28 days old, 0.375 lb ai/acre, 14 DAT): 5%; Percent Control ([3]; 5-7 leaves, cut to 6 cm tall, 28 days old, 0.375 lb ai/acre, 21 DAT): 0%; Percent Control ([3]; 5-7 leaves, cut to 6 cm tall, 28 days old, 0.75 lb ai/acre, 1 DAT): 0%; Percent Control ([3]; 5-7 leaves, cut to 6 cm tall, 28 days old, 0.75 lb ai/acre, 3 DAT): 0%; Percent Control ([3]; 5-7 leaves, cut to 6 cm tall, 28 days old, 0.75 lb ai/acre, 7 DAT): 2%; Percent Control ([3]; 5-7 leaves, cut to 6 cm tall, 28 days old, 0.75 lb ai/acre, 14 DAT): 2%; Percent Control ([3]; 5-7 leaves, cut to 6 cm tall, 28 days old, 0.75 lb ai/acre, 21 DAT): 0%; Percent Control ([3]; 5-7 leaves, cut to 6 cm tall, 28 days old, 1.0 lb ai/acre, 1 DAT): 0%; Percent Control ([3]; 5-7 leaves, cut to 6 cm tall, 28 days old, 1.0 lb ai/acre, 3 DAT): 5%; Percent Control ([3]; 5-7 leaves, cut to 6 cm tall, 28 days old, 1.0 lb ai/acre, 7 DAT): 5%; Percent Control ([3]; 5-7 leaves, cut to 6 cm tall, 28 days old, 1.0 lb ai/acre, 14 DAT): 5%; Percent Control ([3]; 5-7 leaves, cut to 6 cm tall, 28 days old, 1.0 lb ai/acre, 21 DAT): 0%; Percent Control (crabgrass (Digitaria sp); 0.25 lb ai/acre, 2 DAT): 10%; Percent Control (crabgrass (Digitaria sp); 0.25 lb ai/acre, 7 DAT): 20%; Percent Control (crabgrass (Digitaria sp); 0.25 lb ai/acre, 14 DAT): 20%; Percent Control (crabgrass (Digitaria sp); 0.25 lb ai/acre, 20 DAT): 10%; Percent Control (crabgrass (Digitaria sp); 0.5 lb ai/acre, 2 DAT): 0%; Percent Control (crabgrass (Digitaria sp); 0.5 lb ai/acre, 7 DAT): 10%; Percent Control (crabgrass (Digitaria sp); 0.5 lb ai/acre, 14 DAT): 60%; Percent Control (crabgrass (Digitaria sp); 0.5 lb ai/acre, 20 DAT): 50%; Percent Control (crabgrass (Digitaria sp); 0.75 lb ai/acre, 2 DAT): 0%; Percent Control (crabgrass (Digitaria sp); 0.75 lb ai/acre, 7 DAT): 0%; Percent Control (crabgrass (Digitaria sp); 0.75 lb ai/acre, 14 DAT): 60%; Percent Control (crabgrass (Digitaria sp); 0.75 lb ai/acre, 20 DAT): 50%; Percent Control (crabgrass (Digitaria sp); 1.0 lb ai/acre, 2 DAT): 0%; Percent Control (crabgrass (Digitaria sp); 1.0 lb ai/acre, 7 DAT): 10%; Percent Control (crabgrass (Digitaria sp); 1.0 lb ai/acre, 14 DAT): 60%; Percent Control (crabgrass (Digitaria sp); 1.0 lb ai/acre, 20 DAT): 70%; Percent Control (crabgrass (Digitaria sp); 1.25 lb ai/acre, 2 DAT): 0%; Percent Control (crabgrass (Digitaria sp); 1.25 lb ai/acre, 7 DAT): 10%; Percent Control (crabgrass (Digitaria sp); 1.25 lb ai/acre, 14 DAT): 60%; Percent Control (crabgrass (Digitaria sp); 1.25 lb ai/acre, 20 DAT): 70%
